Results published in PMC8409973, “Synthesis, antiproliferative and antitrypanosomal activities, and DNA binding of novel 6-amidino-2-arylbenzothiazoles” (Journal of Enzyme Inhibition and Medicinal Chemistry, 2021).
Entries after “also recorded” stand apart in the source; their conditions may differ. Read-outs that look alike come from different tables or passages of the source.

What was measured:
[1] = test system: WI-38 fibroblast cell line; experiment: Growth inhibition of WI-38 fibroblasts (control substance); assay type: cell-based; settings: Homo sapiens; WI-38 fibroblast cell line (footnote c)
[2] = test system: MCF-7 (human breast adenocarcinoma); experiment: Proliferation assay (MTT, 72 h) on MCF-7; assay type: cell-based; settings: MCF7, MCF-7, 72 h
Procedure: (§1) Human cell lines SW620 (colorectal adenocarcinoma, metastatic), MCF-7 (human breast adenocarcinoma), CFPAC-1 (pancreatic adenocarcinoma), HeLa (cervical carcinoma), and HFF-1 (human foreskin fibroblasts) were obtained from the American Type Culture Collection (ATCC). Cells were cultured in a humidified atmosphere at 37 °C with 5% CO2. As a growth medium, Dulbecco’s modified Eagle medium (DMEM) was used with the addition of foetal bovine serum (10%), L-glutamine (2 mM), and antibiotics: streptomycin ([…]) and penicillin (100 U/ml).
(§2) Cells were seeded onto 96-well microtiter plates at a seeding density of 3000 cells/well for carcinoma cell lines, and 5000 cells/well for normal human fibroblasts. The next day, cells were treated with test agents at five different concentrations (0.01–100 µM) and further incubated for 72 h. […] 5-Fluorouracil (5-FU, 0.384 M fluorouracilum, Pliva 500 mg/10 ml) dissolved in physiological solution was used as a positive control. Following 72 h incubation, the MTT assay was performed and measured absorbances were transformed into a percentage of cell growth as described previously. Results were obtained from three independent experiments. IC50 values were calculated using linear regression analysis (FORECAST option taking into account the concentration range of two experimental points above and below IC50).

[3] = test system: HeLa (cervical carcinoma); experiment: Proliferation assay (MTT, 72 h) on HeLa; assay type: cell-based; settings: Homo sapiens
Procedure: as §1, §2

[4] = test system: CFPAC-1 (pancreatic adenocarcinoma); experiment: Proliferation assay (MTT, 72 h) on CFPAC-1; assay type: cell-based; settings: Homo sapiens, CFPAC-1, 72 h
Procedure: as §1, §2

[5] = test system: SW620 (colorectal adenocarcinoma, metastatic); experiment: Proliferation assay (MTT, 72 h) on SW620; assay type: cell-based; settings: Homo sapiens, SW-620, SW620, 72 h
Procedure: as §1, §2

ctDNA [6] = experiment: CD titration of ctDNA; assay type: binding, calf; settings: for induced CD (ICD) signal with ctDNA: CD titration, pH 7.0, λ > 300 nm; for binding mode to ctDNA: concluded from ICD, ΔTm and binding constants
Procedure: (§3) These solutions were used for measurements in an aqueous buffer (pH = 7, sodium cacodylate buffer, I = 0.05 mol dm^−3). Polynucleotides were purchased as noted: poly (dAdT)2 and calf thymus ctDNA (Sigma-Aldrich). Polynucleotides were dissolved in Na-cacodylate buffer, I = 0.05 mol dm^−3, pH = 7. The calf thymus ctDNA was additionally sonicated and filtered through a […]. Polynucleotide concentration was determined spectroscopically[50]^,[51] as the concentration of phosphates.
CD spectra were recorded on a JASCO J815 spectrophotometer in 1 cm path quartz cuvettes. CD parameters: range = 500–220 nm, data pitch = 2, standard sensitivity, scanning speed = 200 nm/min, accumulation = 3–5. Titrations were performed at 25 °C and pH = 7 (I = 0.05 mol dm^−3, sodium cacodylate buffer). CD experiments were done by adding portions of the compound stock solution into the polynucleotide solution.

[7] = test system: HFF-1 (human foreskin fibroblasts); experiment: Proliferation assay (MTT, 72 h) on normal fibroblasts HFF-1; assay type: cell-based; settings: HFF-1 normal fibroblasts
Procedure: as §1, §2

ctDNA [8] = experiment: Thermal denaturation of ctDNA; assay type: binding, calf; settings: r = [compound]/[polynucleotide] = 0.3, pH 7.0; error ±0.5 °C
Procedure: as §3
(§4) The UV/Vis spectra were recorded on a Varian Cary 100 Bio spectrophotometer using 1 cm path quartz cuvettes. Calibration experiments were performed at 25 °C and pH = 7 (I = 0.05 mol dm^−3, sodium cacodylate buffer). Absorption maxima and corresponding molar extinction coefficients (ε) of benzothiazole derivatives are given in Table S1 (Supplementary material). Thermal melting curves for DNA and their complexes with studied compounds were determined as previously described by following the absorption change at 260 nm as a function of temperature. The absorbance of the ligands was subtracted from every curve and the absorbance scale was normalised. Tm values are the midpoints of the transition curves determined from the maximum of the first derivative and checked graphically by the tangent method. The ΔTm values were calculated by subtracting Tm of the free nucleic acid from Tm of the complex. Every ΔTm value reported here was the average of at least two measurements. The error in ΔTm is ±0.5 °C.

[9] = test system: L6 cells (a rat myoblast line); experiment: L6 cell proliferation (cytotoxicity, resazurin); assay type: cell-based; settings: 144 h; rat myoblast L6, 6 days
[10] = test system: Bloodstream form T. b. brucei (strain 221); experiment: Antitrypanosomal screening (resazurin); assay type: cell-based; settings: Trypanosoma brucei; for IC90: concentration that inhibited growth by 90%, mean ± SEM; for IC50: mean of triplicate ± SEM
Procedure: Resazurin (20 μl at 0.125 mg ml^−1) was added after 48 h, the plates were incubated for a further 16 h, and then read in a Spectramax plate reader, and data analysed using GraphPad Prism. Each drug was tested in triplicate.

calf thymus ctDNA = experiment: Fluorimetric titration with ctDNA; assay type: binding; settings: for I/I0: fluorescence intensity of complex / starting intensity, ctDNA, pH 7.0; for LogKs: fluorescence titration with ctDNA, Scatchard, fixed n = 0.6, pH 7.0, sodium cacodylate I = 0.05 mol dm−3
Procedure: The calf thymus ctDNA was additionally sonicated and filtered through a […]. Polynucleotide concentration was determined spectroscopically[50]^,[51] as the concentration of phosphates. Fluorescence spectra were recorded on a Varian Cary Eclipse spectrophotometer at 25 °C using appropriate 1 cm path quartz cuvettes. […] In fluorimetric experiments, an excitation wavelength of λexc ≥300 nm was used to avoid the inner filter effect caused due to increasing absorbance of the polynucleotide. Emissions were determined in the range λem = 350–650 nm. Values for Ks were obtained by processing titration data using the Scatchard equation[52].

poly (dAdT)2 = experiment: Thermal denaturation of p(dAdT)2; assay type: binding; settings: r = [compound]/[polynucleotide] = 0.3, pH 7.0; error ±0.5 °C
Procedure: as §3, §4

[11] = test system: Bloodstream form T. b. brucei (strain 221); settings: read-out: T. brucei IC50; reference drug; ref Wilkinson et al.[54]; cited from earlier work

| SMILES | IC50 [1] [nM] | IC50 [2] [nM] | IC50 [3] [nM] | IC50 [4] [nM] | IC50 [5] [nM] | induced CD (ICD) signal with ctDNA (ctDNA [6]) | binding mode to ctDNA (ctDNA [6]) | IC50 [7] [nM] | ΔTm ctDNA (ctDNA [8]) [°C] | IC50 [9] [nM] | IC90 [10] [nM] | IC50 [10] [nM] | I/I0 (calf thymus ctDNA) | LogKs (calf thymus ctDNA) | ΔTm p(dAdT)2 (poly (dAdT)2) [°C] | melting point [°C] | IC50 [11] [nM] |
| --- | --- | --- | --- | --- | --- | --- | --- | --- | --- | --- | --- | --- | --- | --- | --- | --- | --- |
| O=c1[nH]cc(F)c(=O)[nH]1 [5-FU, 5-Fluorouracil, reference compound] | 940 | 90 ± 10 | 47500 ± 1930 | 6450 ± 660 | 6400 ± 220 |  |  |  |  |  |  |  |  |  |  |  |  |
| N=C(N)c1ccc2nc(-c3ccc(OCc4cn(-c5ccc(Cl)cc5)nn4)cc3)sc2c1 [10b] |  | 870 ± 180 | 1240 ± 600 |  | 3050 ± 820 | small negative ICD signal | intercalation | 170 ± 130 | 2.7 | 1460 ± 450 | 810 ± 40 | 540 ± 130 | 0.12 | 6.6 | 2.3 |  |  |
| CS(=O)(=O)O.c1ccc(-n2cc(COc3nc4ccc(C5=NCCN5)cc4s3)nn2)cc1 [11a, 6-(4,5-Dihydro-1H-imidazol-3-ium-2-yl)-2-[(1-phenyl-1H-1,2,3-triazol-4-yl)methoxy] benzothiazole methanesulfonate] |  | 490 ± 10 | 570 ± 190 | 450 ± 10 | 460 ± 30 | bisignate signal with maxima at 317 and 360 nm | dimer within the minor groove; also recorded: minor groove binding | 260 ± 20 | 2.1 | < 200 | 280 ± 30 | 230 ± 20 | 0.18 | 6.8 | 4.1 | 270 to 274 |  |
| CS(=O)(=O)O.Clc1ccc(-n2cc(COc3nc4ccc(C5=NCCN5)cc4s3)nn2)cc1 [11b, 6-(4,5-Dihydro-1H-imidazol-3-ium-2-yl)-2-{[1-(4-chlorophenyl)-1H-1,2,3-triazol-4-yl]methoxy}benzothiazole methanesulfonate] |  | 3120 ± 360 | 2610 ± 420 | 3090 ± 190 | 2840 ± 190 | small negative ICD signal | intercalation | 170 ± 90 | 1.2 | < 2000 | 120 ± 30 | 90 ± 20 | 0.21 | 6.6 | 1.1 | 263 to 266 |  |
| CS(=O)(=O)O.Clc1ccc(-n2cc(COc3nc4ccc(C5=NCCCN5)cc4s3)nn2)cc1 [12b, 6-(3,4,5,6-Tetrahydropyrimidin-1-ium-2-yl)-2-[(1-(4-Chlorophenyl)-1H-1,2,3-triazol-4-yl]methoxy)benzothiazole methanesulfonate] |  | 3910 ± 1190 | 2810 ± 580 | 3550 ± 810 | 660 ± 210 | positive induced CD spectra | minor groove binding mode | 240 ± 90 |  | 2320 ± 180 | 1190 ± 20 | 910 ± 80 | 0.31 | 7.0 |  | 220 to 224 |  |
| CS(=O)(=O)O.c1ccc(-n2cc(-c3nc4ccc(C5=NCCN5)cc4s3)nn2)cc1 [14a, 6-(4,5-Dihydro-1H-imidazol-3-ium-2-yl)-2-(1-phenyl-1H-1,2,3-triazole-4-yl)benzothiazole methanesulfonate] |  | 520 ± 260 | 670 ± 60 | 450 ± 190 | 250 ± 160 |  |  | 120 ± 10 | 0.7 | < 2000 | 530 ± 30 | 400 ± 20 | 0.54 | 5.6 | 2.6 |  |  |
| CS(=O)(=O)O.Clc1ccc(-n2cc(-c3nc4ccc(C5=NCCN5)cc4s3)nn2)cc1 [14b, 6-(4,5-Dihydro-1H-imidazol-3-ium-2-yl)-2-[1-(4-chlorophenyl)-1H-1,2,3-triazole-4-yl]benzothiazole methanesulfonate] |  | 1770 ± 180 | 480 ± 10 | 2420 ± 60 | 350 ± 130 |  |  | 360 ± 180 | 2.2 | < 2000 | 480 ± 20 | 320 ± 60 | 0.45 | 5.0 | 3.6 | > 300 |  |
| COc1ccc(-n2cc(-c3nc4ccc(C5=NCCN5)cc4s3)nn2)cc1.CS(=O)(=O)O [14c, 6-(4,5-Dihydro-1H-imidazol-3-ium-2-yl)-2-[1-(4-methoxyphenyl)-1H-1,2,3-triazole-4-yl]benzothiazole methanesulfonate] |  | 540 ± 10 | 380 ± 100 | 480 ± 30 | 360 ± 90 |  |  | 180 ± 10 | 0 | < 2000 | 490 ± 10 | 310 ± 20 |  |  | 4.5 | > 300 |  |
| CS(=O)(=O)O.Clc1ccc(-n2cc(-c3nc4ccc(C5=NCCCN5)cc4s3)nn2)cc1 [15b, 6-(3,4,5,6-Tetrahydropyrimidin-1-ium-2-yl)-2-[1-(4-chlorophenyl)-1H-1,2,3-triazole-4-yl]benzothiazole methanesulfonate] |  | 2100 ± 1090 | 2270 ± 80 | 710 ± 170 | 890 ± 310 | positive induced CD spectra | minor groove binding mode | 740 ± 50 | 0 | 7690 ± 160 | 3840 ± 650 | 1120 ± 230 | 0.35 | 5.4 | 5.4 | 288 to 293 |  |
| CC1CS(=O)(=O)CCN1/N=C/c1ccc([N+](=O)[O-])o1 (centres unmarked) [Nifurtimox] |  |  |  |  |  |  |  |  |  |  |  |  |  |  |  |  | 2000 ± 240 |
